Experiment: Solubility of oligomers in organic solvents
Format: physicochemical
Text: Oligomers such as the homologues H, K, L, M, N, and O are synthesized by treating acid chloride with the corresponding amines.
From H to N, all the amide-H resonances appear at positions >9.2 ppm. […] That one amide-H resonance, appears at δ8.86.

solubility in DMF (DMF): increasingly insoluble
behaviour of the freshly prepared compound in DMF on standing (freshly prepared, added to DMF, standing at room temperature, precipitation faster at elevated temperatures): gradually precipitate out
Compound: COc1ccccc1NC(=O)c1cc(NC(=O)c2cc([N+](=O)[O-])c(OC)cc2OC)c(OC)cc1OC [K]

Reference: US6495680B1, “Helices and nanotubes on folding compositions and method of making same” (The University of Toledo, priority 2000, dated 2002)
